Laboratory results taken from patent US7632972B2, “Compounds and methods for treatment of cancer and modulation of programmed cell death for melanoma and other cancer cells” (The Board of Trustees of the University of Illionis, priority 2003, dated 2009).

Assays:
Assay type in all cases: cell-based, human
[1] = system: SK-MEL-28; test: NCI 60 cell line screen (SRB), Melanoma
Excerpt: (§1) The operation of this screen utilizes 60 different human tumor cell lines, representing leukemia, melanoma and cancers of the lung, colon, brain, ovary, breast, prostate, and kidney. The aim is to prioritize for further evaluation, synthetic compounds or natural product samples showing selective growth inhibition or cell killing of particular tumor cell lines. This screen is unique in that the complexity of a 60 cell line dose response produced by a given compound results in a biological response pattern which can be utilized in pattern recognition algorithms. Using these algorithms, it is possible to assign a putative mechanism of action to a test compound, or to determine that the response pattern is unique and not similar to that of any of the standard prototype compounds included in the NCl database (see DTP Overview tab). In addition, following characterization of various cellular molecular targets in the 60 cell lines, it may be possible to select compounds most likely to interact with a specific molecular target.
(§2) The human tumor cell lines of the cancer screening panel are grown in RPMI 1640 medium containing 5% fetal bovine serum and 2 mM L-glutamine. For a typical screening experiment, cells are inoculated into 96 well microtiter plates in 100 μL at plating densities ranging from 5,000 to 40,000 cells/well depending on the doubling time of individual cell lines. After cell inoculation, the microtiter plates are incubated at 37° C., 5% CO2, 95% air and 100% relative humidity for 24 h prior to addition of experimental drugs.
(§3) After 24 h, two plates of each cell line are fixed in situ with TCA, to represent a measurement of the cell population for each cell line at the time of drug addition (Tz). Experimental drugs are solubilized in dimethyl sulfoxide at 400-fold the desired final maximum test concentration and stored frozen prior to use. At the time of drug addition, an aliquot of frozen concentrate is thawed and diluted to twice the desired final maximum test concentration with complete medium containing 50 μg/ml gentamicin. Additional four, 10-fold or ½ log serial dilutions are made to provide a total of five drug concentrations plus control. Aliquots of 100 μl of these different drug dilutions are added to the appropriate microtiter wells already containing 100 μl of medium, resulting in the required final drug concentrations.
(§4) Following drug addition, the plates are incubated for an additional 48 h at 37° C., 5% CO2, 95% air, and 100% relative humidity. For adherent cells, the assay is terminated by the addition of cold TCA. Cells are fixed in situ by the gentle addition of 50 μl of cold 50% (w/v) TCA (final concentration, 10% TCA) and incubated for 60 minutes at 4° C. The supernatant is discarded, and the plates are washed five times with tap water and air dried. Sulforhodamine B (SRB) solution (100 μl) at 0.4% (w/v) in 1% acetic acid is added to each well, and plates are incubated for 10 minutes at room temperature. After staining, unbound dye is removed by washing five times with 1% acetic acid and the plates are air dried. Bound stain is subsequently solubilized with 10 mM trizma base, and the absorbance is read on an automated plate reader at a wavelength of 515 nm. For suspension cells, the methodology is the same except that the assay is terminated by fixing settled cells at the bottom of the wells by gently adding 50 μl of 80% TCA (final concentration, 16% TCA). Using the seven absorbance measurements [time zero, (Tz), control growth, (C), and test growth in the presence of drug at the five concentration levels (Ti)], the percentage growth is calculated at each of the drug concentrations levels. Percentage growth inhibition is calculated as: [(Ti−Tz)/(C−Tz)]×100 for concentrations for which Ti>/=Tz [(Ti−Tz)/Tz]×100 for concentrations for which Ti<Tz.
(§5) Three dose response parameters are calculated for each experimental agent. […]

[2] = system: PC-3; test: NCI 60 cell line screen (SRB), Prostate Cancer
Excerpt: as §1, §2, §3, §4, §5

[3] = system: DU-145; test: NCI 60 cell line screen (SRB), Prostate Cancer
Excerpt: as §1, §2, §3, §4, §5

[4] = system: NCI-H460; test: NCI 60 cell line screen (SRB), Non-Small Cell Lung Cancer
Excerpt: as §1, §2, §3, §4, §5

[5] = system: EKVX; test: as above
Excerpt: as §1, §2, §3, §4, §5

[6] = system: HOP-92; test: as above
Excerpt: as §1, §2, §3, §4, §5

[7] = system: A549/ATCC; test: as above
Excerpt: as §1, §2, §3, §4, §5

[8] = system: HOP-62; test: as above
Excerpt: as §1, §2, §3, §4, §5

[9] = system: NCI-H522; test: as above
Excerpt: as §1, §2, §3, §4, §5

[10] = read-out: LC50 (the source's name)

## COc1cccc(CCNC(=O)CC(c2ccccc2)(c2ccccc2)c2ccccc2)c1 [Compound Z3]
[1]; SK-MEL-28
  GI50: > 100 µM
  TGI: >1.00E−04
[1]; SK-MEL-28, Log10 Concentration −4.0
  Percent Growth: 94%
[1]; SK-MEL-28, Log10 Concentration −5.0
  Percent Growth: 103%
[1]; SK-MEL-28, Log10 Concentration −6.0
  Percent Growth: 96%
[1]; SK-MEL-28, Log10 Concentration −7.0
  Percent Growth: 105%
[1]; SK-MEL-28, Log10 Concentration −8.0
  Percent Growth: 84%
[1]; SK-MEL-28, read-out: LC50 (the source's name)
  CC50: > 100 µM
[2]; PC-3
  GI50: 6.12 µM
  TGI: >1.00E−04
[2]; PC-3, Log10 Concentration −4.0
  Percent Growth: 12%
[2]; PC-3, Log10 Concentration −5.0
  Percent Growth: 39%
[2]; PC-3, Log10 Concentration −6.0
  Percent Growth: 90%
[2]; PC-3, Log10 Concentration −7.0
  Percent Growth: 96%
[2]; PC-3, Log10 Concentration −8.0
  Percent Growth: 100%
[2]; PC-3, read-out: LC50 (the source's name)
  CC50: > 100 µM
[3]; DU-145
  GI50: 26.8 µM
  TGI: >1.00E−04
[3]; DU-145, Log10 Concentration −4.0
  Percent Growth: 31%
[3]; DU-145, Log10 Concentration −5.0
  Percent Growth: 64%
[3]; DU-145, Log10 Concentration −6.0
  Percent Growth: 88%
[3]; DU-145, Log10 Concentration −7.0
  Percent Growth: 93%
[3]; DU-145, Log10 Concentration −8.0
  Percent Growth: 88%
[3]; DU-145, read-out: LC50 (the source's name)
  CC50: > 100 µM
[4]; NCI-H460
  GI50: 10.5 µM
  TGI: >1.00E−04
[4]; NCI-H460, Log10 Concentration −4.0
  Percent Growth: 18%
[4]; NCI-H460, Log10 Concentration −5.0
  Percent Growth: 51%
[4]; NCI-H460, Log10 Concentration −6.0
  Percent Growth: 90%
[4]; NCI-H460, Log10 Concentration −7.0
  Percent Growth: 117%
[4]; NCI-H460, Log10 Concentration −8.0
  Percent Growth: 97%
[4]; NCI-H460, read-out: LC50 (the source's name)
  CC50: > 100 µM
[5]
  GI50: 22.7 µM
  TGI: >1.00E−04
[5]; Log10 Concentration −4.0
  Percent Growth: 29%
[5]; Log10 Concentration −5.0
  Percent Growth: 62%
[5]; Log10 Concentration −6.0
  Percent Growth: 109%
[5]; Log10 Concentration −7.0
  Percent Growth: 121%
[5]; Log10 Concentration −8.0
  Percent Growth: 108%
[5]; [10]
  CC50: > 100 µM
[6]; HOP-92
  GI50: > 100 µM
  TGI: >1.00E−04
[6]; HOP-92, Log10 Concentration −4.0
  Percent Growth: 68%
[6]; HOP-92, Log10 Concentration −5.0
  Percent Growth: 70%
[6]; HOP-92, Log10 Concentration −6.0
  Percent Growth: 94%
[6]; HOP-92, Log10 Concentration −7.0
  Percent Growth: 94%
[6]; HOP-92, Log10 Concentration −8.0
  Percent Growth: 99%
[6]; HOP-92, read-out: LC50 (the source's name)
  CC50: > 100 µM
[7]
  GI50: 4.11 µM
  TGI: 9.65E−05
[7]; Log10 Concentration −5.0
  Percent Growth: 25%
[7]; Log10 Concentration −6.0
  Percent Growth: 89%
[7]; Log10 Concentration −7.0
  Percent Growth: 94%
[7]; Log10 Concentration −8.0
  Percent Growth: 102%
[7]; [10]
  CC50: > 100 µM
[8]; HOP-62
  GI50: 59.4 µM
  TGI: >1.00E−04
[8]; HOP-62, Log10 Concentration −4.0
  Percent Growth: 40%
[8]; HOP-62, Log10 Concentration −5.0
  Percent Growth: 83%
[8]; HOP-62, Log10 Concentration −6.0
  Percent Growth: 97%
[8]; HOP-62, Log10 Concentration −7.0
  Percent Growth: 105%
[8]; HOP-62, Log10 Concentration −8.0
  Percent Growth: 92%
[8]; HOP-62, read-out: LC50 (the source's name)
  CC50: > 100 µM
[9]; NCI-H522
  TGI: 8.45E−05
[9]; NCI-H522, Log10 Concentration −4.0
  Percent Growth: −1%
[9]; NCI-H522, Log10 Concentration −5.0
  Percent Growth: 12%
[9]; NCI-H522, Log10 Concentration −6.0
  Percent Growth: 58%
[9]; NCI-H522, Log10 Concentration −7.0
  Percent Growth: 46%
[9]; NCI-H522, Log10 Concentration −8.0
  Percent Growth: 67%
[9]; NCI-H522, read-out: LC50 (the source's name)
  CC50: > 100 µM
